Measurements published in paper PMC4770715, “LIM kinase inhibitors disrupt mitotic microtubule organization and impair tumor cell proliferation” (Oncotarget, 2015).

Columns and labels:
Experiment in all cases: biochemical
Set-up in all cases: KINOMEscan active-site competition binding, percent of control (100 = no competition)
Settings in all cases: competition binding, percent control
BIKE = target: T1, BIKE (Homo sapiens, UniProt Q9NSY1)
T1 construct: gene BMP2K

SGK3 = SGK3 (Homo sapiens, UniProt Q96BR1)
CSNK2A2 = CSNK2A2 (Homo sapiens, UniProt P19784)
MEK4 = target: T2, MEK4 (Homo sapiens, UniProt P45985)
T2 construct: gene MAP2K4

NIM1 = target: T3, NIM1 (Homo sapiens, UniProt Q8IY84)
T3 construct: gene NIM1K

PRP4 = target: T4, PRP4 (Homo sapiens, UniProt Q13523)
T4 construct: gene PRPF4B

PFPK5(P.falciparum) = target: T5, PFPK5(P.falciparum) (Plasmodium falciparum, UniProt P61075)
T5 construct: gene CRK2

AXL = AXL (Homo sapiens, UniProt P30530)
[1] = target: T6, ABL1(H396P)-phosphorylated (Homo sapiens, UniProt P00519, H396P)
T6 construct: phosphorylated

GCN2(Kin.Dom.2,S808G) = target: T7, GCN2(Kin.Dom.2,S808G) (Homo sapiens, UniProt Q9P2K8, S808G)
T7 construct: gene EIF2AK4; Kin.Dom.2

FLT3(D835H) = FLT3(D835H) (Homo sapiens, UniProt P36888, D835H)
AKT3 = AKT3 (Homo sapiens, UniProt Q9Y243)
ACVR1B = ACVR1B (Homo sapiens, UniProt P36896)
PRKCH = PRKCH (Homo sapiens, UniProt P24723)
ZAK = target: T8, ZAK (Homo sapiens, UniProt Q9NYL2)
T8 construct: gene MAP3K20

[2] = target: T9, ABL1(M351T)-phosphorylated (Homo sapiens, UniProt P00519, M351T)
T9 construct: phosphorylated

MARK2 = MARK2 (Homo sapiens, UniProt Q7KZI7)
JNK3 = target: T10, JNK3 (Homo sapiens, UniProt P53779)
T10 construct: gene MAPK10

STK16 = STK16 (Homo sapiens, UniProt O75716)
[3] = target: T11, RPS6KA4(Kin.Dom.1-N-terminal) (Homo sapiens, UniProt O75676)
T11 construct: Kin.Dom.1-N-terminal

PLK1 = PLK1 (Homo sapiens, UniProt P53350)
CDK5 = CDK5 (Homo sapiens, UniProt Q00535)

Chain of SGK3 (Q96BR1 whole entry): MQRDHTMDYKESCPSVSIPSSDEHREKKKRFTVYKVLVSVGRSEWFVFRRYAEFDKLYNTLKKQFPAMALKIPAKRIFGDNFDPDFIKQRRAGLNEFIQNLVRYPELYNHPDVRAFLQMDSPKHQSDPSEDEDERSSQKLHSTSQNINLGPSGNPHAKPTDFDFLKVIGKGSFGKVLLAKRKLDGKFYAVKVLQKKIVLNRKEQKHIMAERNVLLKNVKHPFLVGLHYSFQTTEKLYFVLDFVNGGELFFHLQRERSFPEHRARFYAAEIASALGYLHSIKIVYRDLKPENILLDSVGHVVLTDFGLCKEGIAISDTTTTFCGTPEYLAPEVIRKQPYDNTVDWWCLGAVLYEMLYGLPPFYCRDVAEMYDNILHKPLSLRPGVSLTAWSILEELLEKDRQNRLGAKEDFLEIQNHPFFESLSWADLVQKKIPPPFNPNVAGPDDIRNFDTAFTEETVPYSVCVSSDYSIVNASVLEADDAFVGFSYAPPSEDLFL
T1 sequence (Q9NSY1 whole entry): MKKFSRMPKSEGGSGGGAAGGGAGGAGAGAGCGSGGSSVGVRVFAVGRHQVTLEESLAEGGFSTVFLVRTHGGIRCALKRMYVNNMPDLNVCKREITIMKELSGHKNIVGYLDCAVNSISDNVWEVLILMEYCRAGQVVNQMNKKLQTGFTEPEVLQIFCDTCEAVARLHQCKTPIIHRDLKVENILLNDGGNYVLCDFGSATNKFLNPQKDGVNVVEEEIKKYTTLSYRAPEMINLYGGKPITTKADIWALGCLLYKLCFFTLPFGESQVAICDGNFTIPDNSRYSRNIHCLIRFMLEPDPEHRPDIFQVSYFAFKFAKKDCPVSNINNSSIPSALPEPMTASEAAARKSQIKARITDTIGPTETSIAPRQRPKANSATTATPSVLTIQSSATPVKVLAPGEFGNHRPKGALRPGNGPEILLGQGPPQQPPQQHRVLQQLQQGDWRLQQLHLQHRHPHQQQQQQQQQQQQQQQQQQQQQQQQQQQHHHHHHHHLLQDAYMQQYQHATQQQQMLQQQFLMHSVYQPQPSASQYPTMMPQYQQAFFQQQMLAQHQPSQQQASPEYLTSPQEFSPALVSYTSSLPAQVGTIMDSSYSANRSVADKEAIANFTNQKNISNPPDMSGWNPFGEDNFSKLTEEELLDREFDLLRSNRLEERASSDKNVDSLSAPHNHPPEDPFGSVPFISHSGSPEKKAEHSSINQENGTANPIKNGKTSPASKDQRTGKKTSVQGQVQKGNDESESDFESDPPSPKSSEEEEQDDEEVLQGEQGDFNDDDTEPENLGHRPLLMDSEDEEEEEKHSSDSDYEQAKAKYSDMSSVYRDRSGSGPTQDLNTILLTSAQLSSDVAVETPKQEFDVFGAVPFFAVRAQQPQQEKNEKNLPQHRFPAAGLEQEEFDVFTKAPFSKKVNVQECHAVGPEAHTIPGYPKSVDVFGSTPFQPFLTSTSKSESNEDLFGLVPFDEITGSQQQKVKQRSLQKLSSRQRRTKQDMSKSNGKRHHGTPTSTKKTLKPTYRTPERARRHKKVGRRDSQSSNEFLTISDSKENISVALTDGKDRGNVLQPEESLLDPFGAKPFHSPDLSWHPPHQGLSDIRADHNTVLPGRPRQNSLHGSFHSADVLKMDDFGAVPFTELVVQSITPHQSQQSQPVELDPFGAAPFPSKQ
Chain of AXL (P30530 whole entry): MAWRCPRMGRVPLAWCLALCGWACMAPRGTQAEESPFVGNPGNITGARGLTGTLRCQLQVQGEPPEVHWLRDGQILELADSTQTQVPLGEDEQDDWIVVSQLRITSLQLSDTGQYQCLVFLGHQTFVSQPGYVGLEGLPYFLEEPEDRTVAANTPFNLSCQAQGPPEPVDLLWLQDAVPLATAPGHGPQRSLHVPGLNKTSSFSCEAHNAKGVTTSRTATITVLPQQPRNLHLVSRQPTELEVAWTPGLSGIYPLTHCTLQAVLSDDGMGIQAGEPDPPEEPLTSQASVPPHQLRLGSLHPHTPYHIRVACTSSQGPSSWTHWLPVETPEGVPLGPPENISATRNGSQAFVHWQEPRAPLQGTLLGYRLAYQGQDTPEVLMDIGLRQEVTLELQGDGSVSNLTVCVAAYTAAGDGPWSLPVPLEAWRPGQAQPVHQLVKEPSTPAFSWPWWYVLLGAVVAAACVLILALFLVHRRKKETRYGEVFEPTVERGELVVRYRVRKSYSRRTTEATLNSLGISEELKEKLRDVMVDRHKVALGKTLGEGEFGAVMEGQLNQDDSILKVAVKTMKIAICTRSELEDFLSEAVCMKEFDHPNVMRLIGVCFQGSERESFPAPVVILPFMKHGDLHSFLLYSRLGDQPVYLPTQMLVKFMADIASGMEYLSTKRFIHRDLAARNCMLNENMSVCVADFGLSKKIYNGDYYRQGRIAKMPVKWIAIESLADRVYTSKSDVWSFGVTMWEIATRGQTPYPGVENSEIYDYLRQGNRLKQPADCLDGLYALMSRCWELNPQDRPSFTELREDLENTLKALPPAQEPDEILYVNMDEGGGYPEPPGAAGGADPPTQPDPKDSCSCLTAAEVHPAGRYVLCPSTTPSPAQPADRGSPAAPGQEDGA
Chain of CSNK2A2 (P19784 whole entry): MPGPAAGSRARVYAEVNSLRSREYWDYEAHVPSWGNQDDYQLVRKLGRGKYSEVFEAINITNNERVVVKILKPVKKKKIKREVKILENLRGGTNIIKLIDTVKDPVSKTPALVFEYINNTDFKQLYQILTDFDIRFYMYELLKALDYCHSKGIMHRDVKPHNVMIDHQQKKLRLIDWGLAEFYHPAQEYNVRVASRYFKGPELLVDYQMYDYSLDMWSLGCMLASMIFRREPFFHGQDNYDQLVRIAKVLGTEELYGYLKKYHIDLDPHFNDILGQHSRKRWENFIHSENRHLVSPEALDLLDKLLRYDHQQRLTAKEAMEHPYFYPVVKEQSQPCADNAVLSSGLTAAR
T3 sequence (Q8IY84 whole entry): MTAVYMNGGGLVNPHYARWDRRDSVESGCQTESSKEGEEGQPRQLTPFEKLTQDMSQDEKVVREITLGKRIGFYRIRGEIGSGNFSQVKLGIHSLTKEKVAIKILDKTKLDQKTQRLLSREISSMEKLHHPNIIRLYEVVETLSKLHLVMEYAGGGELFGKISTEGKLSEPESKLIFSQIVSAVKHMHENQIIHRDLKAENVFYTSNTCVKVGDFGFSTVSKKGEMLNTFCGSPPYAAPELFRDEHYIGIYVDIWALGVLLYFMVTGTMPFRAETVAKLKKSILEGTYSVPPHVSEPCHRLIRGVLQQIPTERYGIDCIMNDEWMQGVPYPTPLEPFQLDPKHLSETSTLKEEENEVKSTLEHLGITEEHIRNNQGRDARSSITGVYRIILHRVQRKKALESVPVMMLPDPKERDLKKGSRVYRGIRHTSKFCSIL
Chain of MARK2 (Q7KZI7 whole entry): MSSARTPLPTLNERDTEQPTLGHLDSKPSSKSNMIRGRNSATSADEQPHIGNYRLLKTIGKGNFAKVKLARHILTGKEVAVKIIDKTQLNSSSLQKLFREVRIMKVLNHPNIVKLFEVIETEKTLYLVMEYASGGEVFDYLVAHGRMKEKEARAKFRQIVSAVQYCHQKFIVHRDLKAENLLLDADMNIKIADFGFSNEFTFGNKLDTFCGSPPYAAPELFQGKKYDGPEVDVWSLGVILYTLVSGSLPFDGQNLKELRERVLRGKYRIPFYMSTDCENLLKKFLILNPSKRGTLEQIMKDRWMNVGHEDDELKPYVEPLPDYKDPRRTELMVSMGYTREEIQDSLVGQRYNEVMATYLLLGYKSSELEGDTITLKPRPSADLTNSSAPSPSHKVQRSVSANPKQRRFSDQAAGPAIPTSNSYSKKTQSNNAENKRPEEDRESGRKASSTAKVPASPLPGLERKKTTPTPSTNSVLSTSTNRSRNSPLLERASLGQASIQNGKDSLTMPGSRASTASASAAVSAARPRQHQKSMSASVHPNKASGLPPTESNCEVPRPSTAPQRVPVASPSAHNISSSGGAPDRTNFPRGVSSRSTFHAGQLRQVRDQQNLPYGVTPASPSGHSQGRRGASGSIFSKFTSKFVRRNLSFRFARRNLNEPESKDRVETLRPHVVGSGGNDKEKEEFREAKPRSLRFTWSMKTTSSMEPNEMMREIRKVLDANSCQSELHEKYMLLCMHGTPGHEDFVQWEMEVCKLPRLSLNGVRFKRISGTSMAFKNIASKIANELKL
T10 sequence (P53779 whole entry): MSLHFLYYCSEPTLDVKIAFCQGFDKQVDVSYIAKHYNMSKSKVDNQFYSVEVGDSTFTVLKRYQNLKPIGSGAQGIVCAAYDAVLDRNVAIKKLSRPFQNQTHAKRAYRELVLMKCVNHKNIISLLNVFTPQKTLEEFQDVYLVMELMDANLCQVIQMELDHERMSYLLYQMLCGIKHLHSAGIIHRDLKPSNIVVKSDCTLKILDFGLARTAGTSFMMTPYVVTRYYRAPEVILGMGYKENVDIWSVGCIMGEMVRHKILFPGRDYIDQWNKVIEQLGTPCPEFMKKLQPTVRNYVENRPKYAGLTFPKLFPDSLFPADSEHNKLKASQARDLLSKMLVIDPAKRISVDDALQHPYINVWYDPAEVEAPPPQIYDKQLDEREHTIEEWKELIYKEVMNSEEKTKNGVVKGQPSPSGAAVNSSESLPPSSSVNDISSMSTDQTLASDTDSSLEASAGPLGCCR
T5 sequence (P61075 whole entry): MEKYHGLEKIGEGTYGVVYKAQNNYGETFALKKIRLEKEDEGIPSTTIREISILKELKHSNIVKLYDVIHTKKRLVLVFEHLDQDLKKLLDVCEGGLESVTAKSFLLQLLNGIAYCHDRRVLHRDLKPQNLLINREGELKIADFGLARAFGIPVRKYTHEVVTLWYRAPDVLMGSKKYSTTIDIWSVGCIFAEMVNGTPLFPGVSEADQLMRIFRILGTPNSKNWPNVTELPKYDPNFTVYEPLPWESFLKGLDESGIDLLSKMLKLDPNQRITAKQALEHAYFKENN

Compound | remaining binding at 10 µM (BIKE) [%] | remaining binding at 10 µM (SGK3) [%] | remaining binding at 10 µM (CSNK2A2) [%] | remaining binding at 10 µM (MEK4) [%] | remaining binding at 10 µM (NIM1) [%] | remaining binding at 10 µM (PRP4) [%] | remaining binding at 10 µM (PFPK5(P.falciparum)) [%] | remaining binding at 10 µM (AXL) [%] | remaining binding at 10 µM [1] [%] | remaining binding at 10 µM (GCN2(Kin.Dom.2,S808G)) [%] | remaining binding at 10 µM (FLT3(D835H)) [%] | remaining binding at 10 µM (AKT3) [%] | remaining binding at 10 µM (ACVR1B) [%] | remaining binding at 10 µM (PRKCH) [%] | remaining binding at 10 µM (ZAK) [%] | remaining binding at 10 µM [2] [%] | remaining binding at 10 µM (MARK2) [%] | remaining binding at 10 µM (JNK3) [%] | remaining binding at 10 µM (STK16) [%] | remaining binding at 10 µM [3] [%] | also measured
COc1ccc(-c2cnccc2-c2cnc(NC(=O)C(C)C)s2)c(C(F)(F)F)c1 [CRT0105446, N-{5-[3-(4-Methoxy-2-trifluoromethyl-phenyl)-pyridin-4-yl]-hiazol-2-yl}-isobutyramide] | 100 | 95 | 91 | 82 | 100 | 100 | 100 | 87 | 82 | 92 | 15 | 100 | 82 | 100 | 100 | 83 | 63 | 36 | 5 | 100 | remaining binding at 10 µM (PLK1): 100%; remaining binding at 10 µM (CDK5): 60%
Cc1ccc(-c2cnccc2-c2cnc(Nc3ccc(O)cc3)s2)c(Cl)c1 [CRT0105950, 4-{5-[3-(2-Chloro-4-methyl-phenyl)-pyridin-4-yl]-thiazol-2-ylamino}-phenol] | 36 | 72 | 58 | 1.8 | 100 | 100 | 84 | 43 | 72 | 94 | 0.95 | 100 | 76 | 49 | 9 | 66 | 28 | 25 | 8.7 | 14 | remaining binding at 10 µM (PLK1): 100%; remaining binding at 10 µM (CDK5): 12%
